Source: patent US6011000A, “Compositions for the treatment of blood disorders” (priority 1995, dated 2000)

Test system: HSS-II region of the locus control region (LCR)
Test: In vivo footprinting of HSS-II
Design: species or system human
Method: Erythroid cell-rich fractions were prepared from patients' peripheral blood or bone marrow before and during treatment, and were in vivo methylated using DMS. Ligation-mediated polymerase chain reaction (LM-PCR) was performed (J. L. Mueller et al., Sci. 246:780-86, 1989). Briefly, 3-7 μg of DNA was suspended in 15 μl of solution A (40 mM Tris-HCl, pH 7.7, 50 mM NaCl) containing […] of primer. First-strand synthesis was performed by adding 7.5 μl of solution B (20 mM MgCl2, 20 mM DTT, 60 μM dNTP) and 1.5 μl of 1:4 diluted Sequenase version 2.0 (United States Biochemical; Cleveland, Ohio) with TE and incubating at 50° C. for 10 minutes. The reaction was quenched by heating at 68° C. for 10 minutes, adding 6 μl of 310 mM Tris-HCl, pH 7.7, and subsequently extracting with phenol/chloroform/isoamyl alcohol (25:24:1) and with ether. […] All of the footprints were analyzed two or more times to ensure reproducibility.
Several lines of evidence obtained from DNA transfection and transgenic experiments have corroborated the functional importance of HSS-II of the LCR in regulating β-like globin gene expression. […] In view of these observations, the patterns of in vivo footprints of HSS-II in erythroid cell preparations that were obtained from pre-treatment and post-treatment blood samples were analyzed. […]

CCCC(=O)O [AB, arginine butyrate] was tested, and the “footprints over HSS-II” value (erythroblasts of treated sickle cell patient (FIG. 15)) was “novel in vivo footprints that were not seen in a pre-treatment sample became apparent” and the “region of new protection upstream of the GATA-1 binding sequence” value (treated patients (FIG. 15)) was “about 40 bp”.
